Reference: US20250223306A1, “TEAD INHIBITORS AND METHODS OF USE” (Sporos BioDiscovery, Inc., priority 2022, published 2025)

Tests used:
[1] = test system: BHY cells; test: BHY proliferation and cell viability assay (CTG); assay type: cell-based; settings: BHY cell line
Procedure: BHY cells were trypsinised, counted and plated at the specified cell density in 200 μl of growth media in 96 well flat bottom tissue culture treated plates. The plated cells were incubated overnight at 37° C., 5% CO2 before being treated with compounds in triplicate for each assay point. 50 μl of the serially diluted compound was added to each well giving a final DMSO concentration of 0.5% per well and a total volume of 250 μl per well. The treated cells were incubated for 144 hours (6 days) at 37° C., 5% CO2. Following compound treatment, the remaining viable cells were detected using the Promega CellTiter-Glo 2.0 assay as follows: 150 μl of media was removed from each of the wells to be assayed and 100 μl of room temperature CellTiter-Glo 2.0 reagent was added. The plate was placed on an orbital shaker at 500 rpm at room temperature for 2 minutes, and then incubated without shaking for a further 10 minutes at room temperature. 150 μl of cell lysate was removed from each well and dispensed into a single well of a white opaque 96 well plate. Luminescence at 545 nm was read using a BMG CLARIOstar plate reader. The luminescent signal was directly proportional to number of viable cells, the percent of viable cells relative to the DMSO control was then calculated for each assay point. Percent viability relative to DMSO control was plotted against compound concentration and a curve fitted with non-linear regression in GraphPad
Prism software. EC50 and IC50 values are calculated using GraphPad Prism software as follows: For EC50 values, a non-constrained four-parameter logistic curve fit was used (Sigmoidal, 4PL, X is concentration). For Absolute IC50 values the baseline was constrained to Y=0 (Absolute IC50, X is concentration). Area Under the Curve (AUC): Prism computes area-under-the-curve by the trapezoidal method. The analysis sees a fitted curve as simply a series of connected XY points. Prism simply computes the area under the “curve” defined by connecting the points by straight lines. The units of the AUC are the units of the Y axis times units of the X axis.

[2] = test system: LOU-NH91 cells; test: LOU-NH91 proliferation and cell viability assay (CTG); assay type: cell-based; settings: LOU-NH91 cell line, 216 hours
Procedure: LOU-NH91 cells were trypsinised, counted and plated at the specified cell density in 200 μl of growth media in 96 well flat bottom tissue culture treated plates. The plated cells were incubated overnight at 37° C., 5% CO2 before being treated with compounds in triplicate for each assay point. 50 μl of the serially diluted compound was added to each well giving a final DMSO concentration of 0.5% per well and a total volume of 250 μl per well. The treated cells were incubated for 216 hours (9 days) at 37° C., 5% CO2. Following compound treatment, the remaining viable cells were detected using the Promega CellTiter-Glo 2.0 assay as follows: 150 μl of media was removed from each of the wells to be assayed and 100 μl of room temperature CellTiter-Glo 2.0 reagent was added. The plate was placed on an orbital shaker at 500 rpm at room temperature for 2 minutes, and then incubated without shaking for a further 10 minutes at room temperature. 150 μl of cell lysate was removed from each well and dispensed into a single well of a white opaque 96 well plate. Luminescence at 545 nm was read using a BMG CLARIOstar plate reader. The luminescent signal was directly proportional to number of viable cells, the percent of viable cells relative to the DMSO control was then calculated for each assay point. Percent viability relative to DMSO control was plotted against compound concentration and a curve fitted with non-linear regression in GraphPad Prism software. EC50 and IC50 values were calculated using GraphPad Prism software as follows: For EC50 values a non-constrained four-parameter logistic curve fit was used (Sigmoidal, 4PL, X is concentration). For Absolute IC50 values the baseline was constrained to Y=0 (Absolute IC50, X is concentration). Area Under the Curve (AUC): Prism computes area-under-the-curve by the trapezoidal method. The analysis sees a fitted curve as simply a series of connected XY points. Prism simply computes the area under the “curve” defined by connecting the points by straight lines. The units of the AUC are the units of the Y axis times units of the X axis.

[3] = target: TEAD1 (Homo sapiens, UniProt P28347); test: TEAD thermal shift assay (TSA); assay type: binding
TEAD1, sequence (P28347 whole entry): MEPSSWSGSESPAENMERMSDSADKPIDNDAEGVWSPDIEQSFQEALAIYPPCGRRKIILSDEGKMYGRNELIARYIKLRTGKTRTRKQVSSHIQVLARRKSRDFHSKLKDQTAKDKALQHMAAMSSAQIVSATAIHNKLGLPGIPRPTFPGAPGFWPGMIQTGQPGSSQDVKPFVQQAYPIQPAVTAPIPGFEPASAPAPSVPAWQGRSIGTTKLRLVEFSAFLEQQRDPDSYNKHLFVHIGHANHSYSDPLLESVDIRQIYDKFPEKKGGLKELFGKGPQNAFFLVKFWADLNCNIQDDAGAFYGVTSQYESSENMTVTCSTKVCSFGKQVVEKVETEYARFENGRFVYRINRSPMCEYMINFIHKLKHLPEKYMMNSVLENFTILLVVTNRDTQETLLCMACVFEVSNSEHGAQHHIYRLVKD
Excerpt: (§1) Thermal shift assay (TSA) is a biophysical method to evaluate stability of proteins with change in temperature. The assay measures thermal denaturation temperature in varying conditions such as different drug concentration. For this example, fluorogenic dye was used that bind to unfolded proteins. SYPRO Orange binds non-specifically to hydrophobic surfaces, and water strongly quenches its fluorescence. When the protein unfolds, the exposed hydrophobic surfaces bind the dye, resulting in an increase in fluorescence by excluding water. Detergent micelles also bind the dye and increase background noise dramatically. Binding of small molecules to proteins leads to a stabilization against to thermal denaturation with the degree of thermal stabilization proportional to the strength of binding.
(§2) The study described in this example investigated the change in melting temperature (ΔTm) of TEAD isoforms 1˜4 when treated with TEAD inhibitors. Compound 1-1-a known strong TEAD1 and weak TEAD2 inhibitor; as well as Compound 1-4-a pan-TEAD inhibitor were used as controls.
(§3) Tris-HCL was dissolved in 5 mL of Cell culture grade water and allowed to dissolve completely. The pH was adjusted to 8 using NaOH. Additional assay buffer components were added in the order listed above. The buffer was mixed slowly.
(§4) Assay buffer was prepared according to the procedures outlined above and dispensed into test wells. Spyro orange was added to a concentration of 5× in the assay buffer, followed by test compound stock solution which was added to a concentration of 10 μM or 30 μM in the assay buffer.
(§5) The melt cycle was performed in Bio-RAD PCR instrument from 20-95° C. with ramp rate of 1° C./min.

[4] = target: TEAD2 (Homo sapiens, UniProt Q15562); test: TEAD thermal shift assay (TSA); assay type: binding
TEAD2, sequence (Q15562 whole entry): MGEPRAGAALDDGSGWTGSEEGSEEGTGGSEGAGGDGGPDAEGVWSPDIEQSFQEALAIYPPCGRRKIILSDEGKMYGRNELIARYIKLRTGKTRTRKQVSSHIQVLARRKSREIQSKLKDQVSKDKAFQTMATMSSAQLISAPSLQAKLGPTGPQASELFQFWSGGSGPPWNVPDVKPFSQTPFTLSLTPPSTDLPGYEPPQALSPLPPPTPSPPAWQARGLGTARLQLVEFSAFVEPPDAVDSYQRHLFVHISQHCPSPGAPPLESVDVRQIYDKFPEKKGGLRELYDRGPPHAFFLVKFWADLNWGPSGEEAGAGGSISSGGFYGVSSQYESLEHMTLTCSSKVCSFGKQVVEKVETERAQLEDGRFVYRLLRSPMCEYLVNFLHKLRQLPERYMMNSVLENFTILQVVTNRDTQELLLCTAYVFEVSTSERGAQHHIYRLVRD
Excerpt: as §1, §2, §3, §4, §5

[5] = target: TEAD3 (Homo sapiens, UniProt Q99594); test: TEAD thermal shift assay (TSA); assay type: binding
TEAD3, sequence (Q99594 whole entry): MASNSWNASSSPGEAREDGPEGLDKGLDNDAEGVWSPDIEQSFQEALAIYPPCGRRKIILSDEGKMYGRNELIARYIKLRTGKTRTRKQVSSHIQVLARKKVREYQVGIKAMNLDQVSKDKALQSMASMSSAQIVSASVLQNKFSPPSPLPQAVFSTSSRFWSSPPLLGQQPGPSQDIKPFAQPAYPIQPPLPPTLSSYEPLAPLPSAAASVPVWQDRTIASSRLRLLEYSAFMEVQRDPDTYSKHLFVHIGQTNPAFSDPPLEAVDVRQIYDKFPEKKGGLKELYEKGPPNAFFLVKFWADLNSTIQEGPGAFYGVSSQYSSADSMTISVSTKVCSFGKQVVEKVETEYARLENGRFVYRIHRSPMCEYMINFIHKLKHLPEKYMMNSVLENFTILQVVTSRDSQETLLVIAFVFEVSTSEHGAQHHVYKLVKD
Excerpt: as §1, §2, §3, §4, §5

[6] = target: TEAD4 (Homo sapiens, UniProt Q15561); test: TEAD thermal shift assay (TSA); assay type: binding
TEAD4, sequence (Q15561 whole entry): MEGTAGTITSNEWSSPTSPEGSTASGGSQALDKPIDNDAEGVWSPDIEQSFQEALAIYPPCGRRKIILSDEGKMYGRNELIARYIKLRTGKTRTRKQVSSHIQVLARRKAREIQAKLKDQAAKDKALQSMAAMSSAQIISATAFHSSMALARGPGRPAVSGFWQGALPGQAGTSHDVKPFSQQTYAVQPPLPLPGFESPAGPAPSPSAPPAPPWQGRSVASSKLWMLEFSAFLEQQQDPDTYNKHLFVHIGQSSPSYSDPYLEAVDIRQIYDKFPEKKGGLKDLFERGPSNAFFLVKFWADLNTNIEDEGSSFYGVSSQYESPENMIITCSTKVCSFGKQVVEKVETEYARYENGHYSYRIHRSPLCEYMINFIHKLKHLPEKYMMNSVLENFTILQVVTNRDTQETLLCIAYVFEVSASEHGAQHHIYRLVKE
Excerpt: as §1, §2, §3, §4, §5

[7] = test system: SDM103T2 cells; test: SDM103T2 proliferation and cell viability assay (CTG); assay type: cell-based; settings: SDM103T2 cell line, 144 hours
Procedure: SDM103T2 cells were trypsinised, counted and plated at the specified cell density in 200 μl of growth media in 96 well flat bottom tissue culture treated plates. The plated cells were incubated overnight at 37° C., 5% CO2 before being treated with compounds in triplicate for each assay point. 50 μl of the serially diluted compound was added to each well giving a final DMSO concentration of 0.5% per well and a total volume of 250 μl per well. The treated cells were incubated for 144 hours (6 days) at 37° C., 5% CO2. Following compound treatment the remaining viable cells were detected using the Promega CellTiter-Glo 2.0 assay as follows: 150 μl of media was removed from each of the wells to be assayed and 100 μl of room temperature CellTiter-Glo 2.0 reagent was added. The plate was placed on an orbital shaker at 500 rpm at room temperature for 2 minutes, and then incubated without shaking for a further 10 minutes at room temperature. 150 μl of cell lysate was removed from each well and dispensed into a single well of a white opaque 96 well plate. Luminescence at 545 nm was read using a BMG CLARIOstar plate reader. The luminescent signal was directly proportional to number of viable cells, the percent of viable cells relative to the DMSO control was then calculated for each assay point. Percent viability relative to DMSO control was plotted against compound concentration and a curve fitted with non-linear regression in GraphPad Prism software. EC50 and IC50 values were calculated using GraphPad Prism software as follows: For EC50 values a non-constrained four-parameter logistic curve fit was used (Sigmoidal, 4PL, X is concentration). For Absolute IC50 values the baseline was constrained to Y=0 (Absolute IC50, X is concentration). Area Under the Curve (AUC): Prism computes area-under-the-curve by the trapezoidal method. The analysis sees a fitted curve as simply a series of connected XY points. Prism simply computes the area under the “curve” defined by connecting the points by straight lines. The units of the AUC are the units of the Y axis times units of the X axis.

[8] = test system: NCI-H226 xenograft; test: Inhibition of mouse xenograft NCI-H226 tumors; assay type: in vivo, BALB/c nude mice; settings: Day 27; 3 mg/kg, p.o., QD
Excerpt: This study evaluated the in vivo therapeutic efficacy of TEAD inhibitors in the treatment of the subcutaneous lung cancer NCI-H226 xenograft model in female BALB/c nude mice.
• ANOVA Analysis of variance • BW Body weight • BWL Body weight loss • FFPE Formalin fixed paraffin embedded • IACUC Institutional animal care and use committee • MTV Mean tumor volume • N/A Not available or not applicable • p.o. Oral (ly) • QD Once a day • REG REG=[(T0−Ti)/T0]×100%; • Ti as the mean tumor volume of the treatment group on the measurement day; • T0 as the mean tumor volume of the treatment group on Day 0. • ROA Route of administration • RT Room temperature • RTV Relative tumor volume • SD Standard deviation • SEM Standard error of mean • SOC Standard of care used in clinical setting for a specific disease • TBD To be determined • T/C The Ti/Ci value (%): T/C %=Ti/Ci×100; • Ti and Ci are the mean tumor volumes of the treatment and control groups, respectively, on a given day. • TGI Tumor growth inhibition; TGI %=(1−Ti/Ci)×100; • Ti and Ci are the mean tumor volumes of the treatment and control groups, respectively, on a given day. • TV Tumor volume • PK/PD Pharmacokinetics/Pharmacodynamics • ΔInhibition Mean % ΔInhibition=((Ci−C0)−(Ti−T0))/(Ci−C0)*100% • Ti and Ci are the mean tumor volumes of the treatment and control groups, respectively, on a given day. T0 and C0 as the mean tumor volumes of the treatment and vehicle groups on Day 0.
• Species Mus musculus • Strain Balb/c nude • Supplier GemPharmatech Co., Ltd • Gender Female • No. of Animals Ordered 68 (45 plus 23 spare) • No. of Animals Assigned 45 • to Study • Average Age of Animals 6-8 weeks • at Study Initiation
The NCI-H226 cells (CL-00364) cancer cells were maintained in vitro with RPMI1640 medium supplemented with 10% fetal bovine serum at 37° C. in an atmosphere of 5% CO2 in the air. The cells in exponential growth phase were harvested and quantitated by cell counter before tumor inoculation.
Each mouse was inoculated subcutaneously in the right front flank region with NCI-H226 tumor cells (1×10^7) in 0.2 ml of PBS mixed with Matrigel (1:1) for tumor development.
The randomization was performed when the mean tumor size reached 138.81 mm^3. 45 mice were enrolled in the study. All animals were randomly allocated to 9 study groups, 5 mice in each group. Randomization was performed based on “Matched distribution” method/“Stratified” method (StudyDirector™ software, version 3.1.399.19)/randomized block design. The date of randomization was denoted as day 0.
The treatment was initiated on the same day of randomization (day 0) per study design.
After tumor cells inoculation, the animals were checked daily for morbidity and mortality. During routine monitoring, the animals were checked for any effects of tumor growth and treatments on behavior such as mobility, food and water consumption, body weight gain/loss (Body weights were measured twice per week after randomization), eye/hair matting and any other abnormalities. Mortality and observed clinical signs were recorded for individual animals in detail.
Tumor volumes were measured twice per week after randomization in two dimensions using a caliper, and the volume was expressed in mm^3 using the formula: “V=(L×W×W)/2, where V is tumor volume, L is tumor length (the longest tumor dimension) and W is tumor width (the longest tumor dimension perpendicular to L). Dosing as well as tumor and body weight measurements were conducted in a Laminar Flow Cabinet.
To compare tumor volumes of different groups at a pre-specified day, Bartlett's test was first used to check the assumption of homogeneity of variance across all groups. When the p-value of Bartlett's test was >=0.05, one-way ANOVA was performed to test overall equality of means across all groups. […]

[9] = ratio of protein to compound 1:1
[10] = ratio of protein to compound 1:3

C[C@H](CO)NC(=O)c1cnc2c(C3=CCC(C(F)(F)F)CC3)cccc2c1 (single isomer, unassigned) [Compound 81]
EC50 ([1]; 144 h): < 0.2 µM | EC50 [2]: < 0.2 µM | TEAD1 ΔTm [3, 9]: 9 °C | TEAD1 ΔTm [3, 10]: 10 °C | TEAD2 ΔTm [4, 9]: 2 °C | TEAD2 ΔTm [4, 10]: 3 °C | TEAD3 ΔTm [5, 9]: 4 °C | TEAD3 ΔTm [5, 10]: 5 °C | TEAD4 ΔTm [6, 9]: 5 °C | TEAD4 ΔTm [6, 10]: 7 °C

C[C@H](CO)NC(=O)c1cnc2c(C3=CCC(C(F)(F)F)CC3)cccc2c1 (single isomer, unassigned) [Compound 82]
EC50 ([1]; 144 hours): 0.2 to 1 µM | EC50 [2]: < 0.2 µM

COC[C@H](CO)NC(=O)c1cnc2c(C3=CCC(C(F)(F)F)CC3)cccc2c1 (single isomer, unassigned) [Compound 103]
EC50 ([1]; 144 h): < 0.2 µM | EC50 [2]: < 0.2 µM

COC[C@H](CO)NC(=O)c1cnc2c(C3=CCC(C(F)(F)F)CC3)cccc2c1 (single isomer, unassigned) [Compound 104]
EC50 ([1]; 144 hours): < 0.2 µM | EC50 [2]: < 0.2 µM

CNS(=O)(=O)c1ccc(Nc2ccc(C(F)(F)F)cc2)c(-c2cn(C)cn2)c1 [Compound 1-1, reference compound]
EC50 [7]: < 0.2 µM | TEAD1 ΔTm [3, 9]: 2 °C | TEAD1 ΔTm [3, 10]: 8 °C | thermal shift / binding across TEAD isoforms, in words ([3]; summary of Table 14 over TEAD1-4): pronounced thermal shift only for TEAD1 | TEAD2 ΔTm [4, 9]: 1 °C | TEAD3 ΔTm [5, 9]: 0 °C | TEAD4 ΔTm [6, 9]: 0 °C | TEAD4 ΔTm [6, 10]: 1 °C | T/C [8]: 12.51% | TGI [8]: 87.49% | Tumor Volume (mean ± SEM) [8]: 66.85 ± 12.17 mm^3
